Data as given in patent US7053047B2, “Cyclic pentapeptides and their preparation” (Purzer Pharmaceutical Co., Ltd., priority 2002, dated 2006).
Marks after values point to notes of the source that are not given here.

What was measured:
thrombus = experiment: Thrombolytic effect in thrombolysis rat model (thrombus on bolt in arteriovenous polyethylene tube); format: in vivo, Wistar rat; conditions: for m, thrombus mass reduction: injected in 6 min, bolt weighed after 1 h, n = 8; for thrombolytic effect / potency (comparison in words): thrombolysis rat model, Tables 1 and 2
Procedure: The thrombolytic effect was evaluated by thrombolysis rat model.
0.1 ml Wistar rat blood was poured into a glass tube (length, 15 mm; external diameter, 5.0 mm; internal diameter, 2.5 mm) which was fixed vertically and the bottom was sealed with a rubber stopper. A stainless steel bolt was inserted quickly, the bolt diameter was 0.2 mm and the length was 12 mm. 15 min later, the bolt containing thrombus was taken out from the glass tube and weighed exactly.
Male Wistar rat weighing 220 g–280 g were anesthetized with pentobarbital sodium (80 mg/kg, i.p). The right arteria carotis communis and the left vena jugulars externa were separated. The bolt containing thrombus was put in the polyethylene tube and one end was inserted into the left vena jugulars externa. 50 IU/kg of heparin sodium was injected as anticoagulant, and the other tube end was inserted into the right arteria carotis communis. At this time the blood flowed from the right arteria carotis to the left vena jugulars externa via the polyethylene tube. Then normal saline solution, UK, GP6A (SEQ ID NO: 26), P6A (SEQ ID NO: 25) and KP6A (SEQ ID NO: 27) were injected in 6 min. The bolt was taken out and weighed after 1 h. The data are listed in Table 1 and Table 2, statistical data analysis was carried out by using student's t test, p<0.05 was considered significant.

[1] = tested on: coronary artery and femoral artery blood flow; conditions: dogs; cited from earlier work
[2] = tested on: coronary artery thrombosis; experiment: Thrombolysis with tissue plasminogene activator in dogs with coronary artery thrombosis; format: in vivo; conditions: injected i.v. together with tissue plasminogene activator
From the text: Peptide 6A is a degradation of fibrinogen β chain analogue which has been known to increase coronary artery and femoral artery blood flow. In 1978(1), peptide 6A was first isolated and purified from the β chain of human fibrinogen by Belew et al.(2). The composition of peptide 6A was confirmed as Ala-Arg-Pro-Ala-Lys (SEQ ID NO: 25). […] In 1997, the inventors prepared peptide 6A and its analogues by solution method and observed that these peptides have good potency for relaxing vascula, lowering blood pressure and anti-thrombosis. The synthetic techniques and functions of these compounds have been described in CN Patent No. 1146458.

Substance | m, thrombus mass reduction (thrombus; dosage 5 μmol/kg) | m, thrombus mass reduction (thrombus; dosage 10 μmol/kg) | m, thrombus mass reduction (thrombus; dosage 20 μmol/kg) | thrombolytic effect compared with UK (thrombus; high concentration (>10 μmol) versus UK (2000 IU/Kg)) | thrombolytic effect / potency (comparison in words) (thrombus) | coronary artery and femoral artery blood flow [1] | parameters of thrombolysis [2]
Cyclo(Ala-Arg-Pro-Ala-Lys) (ARPAK; cyclic; Cyclo P6A) [CycloP6A] | 10.62 ± 3.15^a mg | – | – | – | – | – | –
Cyclo(Gly-Arg-Pro-Ala-Lys) (GRPAK; cyclic; Cyclo GP6A) [CycloGP6A] | 8.35 ± 2.76^a mg | 17.31 ± 4.29^a mg | 18.38 ± 2.08^a,b,c mg | even better than UK | much more thrombolytic potency than the others | – | –
Cyclo(Lys-Arg-Pro-Ala-Lys) (KRPAK; cyclic; Cyclo KP6A) [CycloKP6A] | 6.13 ± 2.31^a mg | – | – | – | – | – | –
H-Ala-Arg-Pro-Ala-LysOH (H-ARPAK-OH) [Compound P6A] | 6.07 ± 2.14^a mg | – | – | – | – | increases coronary artery and femoral artery blood flow | no additional benefit on the parameters of thrombolysis
H-Gly-Arg-Pro-Ala-LysOH (GRPAK; GP6A) | 9.31 ± 3.94^a mg | 13.17 ± 4.13^a mg | 16.81 ± 544^a,b mg | – | much more thrombolytic potency than the others | – | –
H-Lys-Arg-Pro-Ala-LysOH (KRPAK; KP6A) | 0.28 ± 2.13 mg | – | – | – | – | – | –
